≈ marks a conversion by molar mass, not a printed value.

Usually MIC stands for the lowest concentration that inhibits growth of the organism.

For this assay, the system named is M tb H37Rv. Kind of assay: MIC determination against M tb H37Rv (green fluorescent protein reporter assay; MIC-MABA). In kind it is cell-based, Mycobacterium tuberculosis. The note with it: Mycobacterium tuberculosis, H37RV, 240 h, read-out: M. TB H37Rv: MIC-MABA: MIC, M. tb H37Rv; 7H9 broth; 10 days exposure; MIC = lowest concentration inhibiting fluorescence by 90%. Background: Reporter assays use an easily measured gene product as a stand-in for the process of interest.
As to `Cc1ncc2[nH]c(C(=O)NC3CC[Si]4(CCCCC4)CC3)cc2c1F` [MPL-320, 4-fluoro-5-methyl-N-(6-silaspiro[5.5]undecan-3-yl)-1H-pyrrolo[2,3-c]pyridine-2-carboxamide], the minimal inhibitory concentration (MIC) was determined as 0.25 µg/mL (≈ 0.695 µM).
Turning to `C[Si]1(C)CCC(NC(=O)c2cc3c(F)ccnc3[nH]2)CC1` [MPL-109, N-(1,1-dimethylsilinan-4-yl)-4-fluoro-1H-pyrrolo[2,3-b]pyridine-2-carboxamide], the minimal inhibitory concentration (MIC) is 0.022 µg/mL (≈ 0.072 µM).
`O=C(NC1CC[Si]2(CCCCC2)CC1)c1cc2cc(-c3cccnc3)cnc2[nH]1` [MPL-435, 5-(3-pyridyl)-N-(6-silaspiro[5.5]undecan-3-yl)-1H-pyrrolo[2,3-b]pyridine-2-carboxamide]: the minimum inhibitory concentration (MIC) worked out at 1 µg/mL (≈ 2.47 µM).
`CC1(C)[C@H]2C[C@H](NC(=O)c3cc4c(C(F)(F)F)ccnc4[nH]3)[C@](C)(O)[C@@H]1C2` [MPL-216, N-[(1R,2R,3S,5R)-2-hydroxy-2,6,6-trimethyl-norpinan-3-yl]-4-(trifluoromethyl)-1H-pyrrolo[2,3-b]pyridine-2-carboxamide]: the minimum inhibitory concentration (MIC) was 0.041 µg/mL (≈ 0.107 µM).
Then `CC1(C)CCC(NC(=O)c2cc3c(F)c(F)cnc3[nH]2)CC1` [MPL-063, N-(4,4-dimethylcyclohexyl)-4,5-difluoro-1H-pyrrolo[2,3-b]pyridine-2-carboxamide], with 0.14 µg/mL (≈ 0.456 µM); and `Cc1cc(Cl)c2cc(C(=O)N[C@H]3C[C@H]4C[C@H](C4(C)C)[C@@]3(C)O)[nH]c2n1` [MPL-218, 4-chloro-N-[(1R,2R,3S,5R)-2-hydroxy-2,6,6-trimethyl-norpinan-3-yl]-6-methyl-1H-pyrrolo[2,3-b]pyridine-2-carboxamide], with 0.037 µg/mL (≈ 0.102 µM); and `Cc1ncc2[nH]c(C(=O)NC3CCC(C)(C)CC3)cc2c1F` [MPL-141, N-(4,4-dimethylcyclohexyl)-4-fluoro-5-methyl-1H-pyrrolo[2,3-c]pyridine-2-carboxamide], with 0.29 µg/mL (≈ 0.956 µM).
As for `Cc1nc2[nH]c(C(=O)N[C@H]3CCC[Si](C)(C)CC3)cc2c(F)c1F` (single isomer, unassigned) [MPL-282B], the figure is 0.197 µg/mL (≈ 0.56 µM); as for `O=C(NC1CCCCCCC1)c1cc2cc(Cl)c(F)nc2[nH]1` [MPL-065a, 5-chloro-N-cyclooctyl-6-fluoro-1H-pyrrolo[2,3-b]pyridine-2-carboxamide], 0.013 µg/mL (≈ 0.0401 µM); as for `Cc1cc(Cl)c2cc(C(=O)NC3CCCC[Si](C)(C)CC3)[nH]c2n1` (stereo not drawn) [MPL-275, 4-chloro-N-(1,1-dimethylsilocan-4-yl)-6-methyl-1H-pyrrolo[2,3-b]pyridine-2-carboxamide], 0.031 µg/mL (≈ 0.0852 µM).
As for `Cc1cc(F)c2cc(C(=O)NC3CC[Si](C)(C)CC3)[nH]c2n1` [MPL-207, N-(1,1-dimethylsilinan-4-yl)-4-fluoro-6-methyl-1H-pyrrolo[2,3-b]pyridine-2-carboxamide], the MIC came out at 0.0045 µg/mL (≈ 0.0141 µM).
As to `C[C@@H]1[C@@H](NC(=O)c2cc3c(C(F)(F)F)cncc3[nH]2)C[C@H]2C[C@@H]1C2(C)C` [MPL-100, 4-(trifluoromethyl)-N-[(1S,2S,3S,5R)-2,6,6-trimethylnorpinan-3-yl]-1H-pyrrolo[2,3-c]pyridine-2-carboxamide], the minimum inhibitory concentration (MIC) is 0.24 µg/mL (≈ 0.657 µM).
Then `O=C(NC1CC[Si]2(CCCC2)CC1)c1cc2c(F)c(C(F)(F)F)ncc2[nH]1` [MPL-367, 4-fluoro-N-(5-silaspiro[4.5]decan-8-yl)-5-(trifluoromethyl)-1H-pyrrolo[2,3-c]pyridine-2-carboxamide], with 0.988 µg/mL (≈ 2.47 µM).
As for `Cc1cc(F)c2c(C)c(C(=O)NC3CC[Si]4(CCCC4)CC3)[nH]c2n1` [MPL-280, 4-fluoro-3,6-dimethyl-N-(5-silaspiro[4.5]decan-8-yl)-1H-pyrrolo[2,3-b]pyridine-2-carboxamide], the minimal inhibitory concentration (MIC) worked out at 0.043 µg/mL (≈ 0.12 µM).
Then `C[C@@H]1[C@@H](NC(=O)c2cc3c(C#N)ccnc3[nH]2)C[C@H]2C[C@@H]1C2(C)C` [MPL-013, 4-cyano-N-[(1S,2S,3S,5R)-2,6,6-trimethylnorpinan-3-yl]-1H-pyrrolo[2,3-b]pyridine-2-carboxamide], with 1.2 µg/mL (≈ 3.72 µM).
In the case of `Cc1nc2[nH]c(C(=O)NC3CCCCCCC3)cc2c(F)c1F` [MPL-290, N-cyclooctyl-4,5-difluoro-6-methyl-1H-pyrrolo[2,3-b]pyridine-2-carboxamide], the MIC worked out at 0.005 µg/mL (≈ 0.0156 µM).
For `O=C(NC1CCC2(CC1)CC2)c1cc2c(Cl)cncc2[nH]1` [MPL-163, 4-chloro-N-spiro[2.5]octan-6-yl-1H-pyrrolo[2,3-c]pyridine-2-carboxamide], the minimum inhibitory concentration (MIC) is 0.64 µg/mL (≈ 2.11 µM).
As to `COc1ccnc2[nH]c(C(=O)N[C@H]3C[C@H]4C[C@@H]([C@@H]3C)C4(C)C)cc12` [MPL-014, 4-methoxy-N-[(1S,2S,3S,5R)-2,6,6-trimethylnorpinan-3-yl]-1H-pyrrolo[2,3-b]pyridine-2-carboxamide], the MIC was 5.4 µg/mL (≈ 16.5 µM).
Take `Cc1nc2[nH]c(C(=O)N[C@H]3C[C@H]4C[C@@H]([C@@H]3C)C4(C)C)cc2c(F)c1F` [MPL-066, 4,5-difluoro-6-methyl-N-[(1S,2S,3S,5R)-2,6,6-trimethylnorpinan-3-yl]-1H-pyrrolo[2,3-b]pyridine-2-carboxamide]: the MIC came out at 0.012 µg/mL (≈ 0.0345 µM).
In the case of `N#Cc1cncc2[nH]c(C(=O)NC3CCCCCCC3)cc12` [MPL-096, 4-cyano-N-cyclooctyl-1H-pyrrolo[2,3-c]pyridine-2-carboxamide], the MIC was determined as 0.47 µg/mL (≈ 1.59 µM).
For `C[C@@H]1[C@@H](NC(=O)c2cc3c(C#N)cncc3[nH]2)C[C@H]2C[C@@H]1C2(C)C` [MPL-095, 4-cyano-N-[(1S,2S,3S,5R)-2,6,6-trimethylnorpinan-3-yl]-1H-pyrrolo[2,3-c]pyridine-2-carboxamide], the minimum inhibitory concentration (MIC) amounted to 1.5 µg/mL (≈ 4.65 µM).
As for `Cc1ccnc2[nH]c(C(=O)N[C@H]3C[C@H]4C[C@@H]([C@@H]3C)C4(C)C)cc12` [MPL-016, 4-methyl-N-[(1S,2S,3S,5R)-2,6,6-trimethylnorpinan-3-yl]-1H-pyrrolo[2,3-b]pyridine-2-carboxamide], the figure is 0.38 µg/mL (≈ 1.22 µM); as for `Cc1cc(C)c2cc(C(=O)NC3CCC(C)(C)CC3)[nH]c2n1` [MPL-019, N-(4,4-dimethylcyclohexyl)-4,6-dimethyl-1H-pyrrolo[2,3-b]pyridine-2-carboxamide], 9 µg/mL (≈ 30.1 µM); as for `N#Cc1ccnc2[nH]c(C(=O)NC3CCCCCCC3)cc12` [MPL-036, 4-cyano-N-cyclooctyl-1H-pyrrolo[2,3-b]pyridine-2-carboxamide], 0.08 µg/mL (≈ 0.27 µM).
Then `Cc1ncc2[nH]c(C(=O)NC3CCC[Si](C)(C)CC3)cc2c1F` (stereo not drawn) [MPL-351, N-(1,1-dimethylsilepan-4-yl)-4-fluoro-5-methyl-1H-pyrrolo[2,3-c]pyridine-2-carboxamide], with 0.248 µg/mL (≈ 0.744 µM); and `O=C(NC1CCCCCCC1)c1cc2c(Cl)ccnc2[nH]1` [MPL-033, 4-chloro-N-cyclooctyl-1H-pyrrolo[2,3-b]pyridine-2-carboxamide], with 0.038 µg/mL (≈ 0.124 µM).
`COc1ccc2cc(C(=O)NC3CCC[Si](C)(C)CC3)[nH]c2n1` (stereo not drawn) [MPL-466, N-(1,1-dimethylsilepan-4-yl)-6-methoxy-1H-pyrrolo[2,3-b]pyridine-2-carboxamide]: the minimal inhibitory concentration (MIC) was determined as 0.119 µg/mL (≈ 0.359 µM).
With `Cc1nc2[nH]c(C(=O)NC3CC[Si](C)(C)CC3)cc2c(C)c1F` [MPL-237, N-(1,1-dimethylsilinan-4-yl)-5-fluoro-4,6-dimethyl-1H-pyrrolo[2,3-b]pyridine-2-carboxamide], the minimum inhibitory concentration (MIC) was 0.047 µg/mL (≈ 0.141 µM).
Consider `C[Si]1(C)CCC(NC(=O)c2cc3c(Cl)c(C(F)(F)F)ncc3[nH]2)CC1` [MPL-329, 4-chloro-N-(1,1-dimethylsilinan-4-yl)-5-(trifluoromethyl)-1H-pyrrolo[2,3-c]pyridine-2-carboxamide], for which the MIC stood at 0.491 µg/mL (≈ 1.26 µM).
Turning to `Cc1cc(F)c2cc(C(=O)NC3CC[Si]4(CCCC4)CC3)[nH]c2n1` [MPL-253, 4-fluoro-6-methyl-N-(5-silaspiro[4.5]decan-8-yl)-1H-pyrrolo[2,3-b]pyridine-2-carboxamide], the MIC is 0.056 µg/mL (≈ 0.162 µM).
Then `Cc1c(C(=O)N[C@H]2C[C@H]3C[C@@H]([C@@H]2C)C3(C)C)[nH]c2nccc(F)c12` [MPL-174, 4-fluoro-3-methyl-N-[(1S,2S,3S,5R)-2,6,6-trimethylnorpinan-3-yl]-1H-pyrrolo[2,3-b]pyridine-2-carboxamide], with 0.19 µg/mL (≈ 0.577 µM); and `Cc1ncc2[nH]c(C(=O)NC3CCC[Si](C)(C)CC3)c(C)c2c1F` (stereo not drawn) [MPL-353, N-(1,1-dimethylsilepan-4-yl)-4-fluoro-3,5-dimethyl-1H-pyrrolo[2,3-c]pyridine-2-carboxamide], with 0.124 µg/mL (≈ 0.357 µM).
As to `Cc1cc2cc(C(=O)NC3CCC(C)(C)CC3)[nH]c2cn1` [MPL-125, N-(4,4-dimethylcyclohexyl)-5-methyl-1H-pyrrolo[2,3-c]pyridine-2-carboxamide], the MIC was 3.1 µg/mL (≈ 10.9 µM).
Then `C[Si]1(C)CCC(NC(=O)c2cc3c(Cl)cncc3[nH]2)CC1` [MPL-192, 4-chloro-N-(1,1-dimethylsilinan-4-yl)-1H-pyrrolo[2,3-c]pyridine-2-carboxamide], with 0.0093 µg/mL (≈ 0.0289 µM).
Then `C[C@@H]1[C@@H](NC(=O)c2cc3c(C(F)(F)F)ccnc3[nH]2)C[C@H]2C[C@@H]1C2(C)C` [MPL-015, 4-(trifluoromethyl)-N-[(1S,2S,3S,5R)-2,6,6-trimethylnorpinan-3-yl]-1H-pyrrolo[2,3-b]pyridine-2-carboxamide], with 0.044 µg/mL (≈ 0.12 µM); and `C[Si]1(C)CCCC(NC(=O)c2cc3c(F)c(C(F)(F)F)ncc3[nH]2)CC1` (stereo not drawn) [MPL-366, N-(1,1-dimethylsilepan-4-yl)-4-fluoro-5-(trifluoromethyl)-1H-pyrrolo[2,3-c]pyridine-2-carboxamide], with 0.492 µg/mL (≈ 1.27 µM); and `Cc1ncc2[nH]c(C(=O)NC3CC[Si](C)(C)CC3)cc2c1Cl` [MPL-328, 4-chloro-N-(1,1-dimethylsilinan-4-yl)-5-methyl-1H-pyrrolo[2,3-c]pyridine-2-carboxamide], with 0.061 µg/mL (≈ 0.182 µM).
Take `Cc1nc2[nH]c(C(=O)N[C@H]3C[C@H]4C[C@@H]([C@@H]3C)C4(C)C)cc2c(F)c1Cl` [MPL-068, 5-chloro-4-fluoro-6-methyl-N-[(1S,2S,3S,5R)-2,6,6-trimethylnorpinan-3-yl]-1H-pyrrolo[2,3-b]pyridine-2-carboxamide]: the MIC is 0.046 µg/mL (≈ 0.126 µM).
Consider `O=C(NC1CCCCCCC1)c1cc2c(Br)ccnc2[nH]1` [MPL-035, 4-bromo-N-cyclooctyl-1H-pyrrolo[2,3-b]pyridine-2-carboxamide], for which the MIC worked out at 0.14 µg/mL (≈ 0.4 µM).

The values are drawn from patent US20230002372A1, “AZAINDOLE CARBOXAMIDE COMPOUNDS FOR THE TREATMENT OF MYCOBACTERIAL INFECTIONS” (THE GLOBAL ALLIANCE FOR TB DRUG DEVELOPMENT, INC., priority 2019, published 2023).
